Like-named read-outs stand apart in the source and are kept apart here.
Legend:
[1] = biological target: T1, DDR1 (Homo sapiens, UniProt Q08345); test: LanthaScreen kinase activity assay (Invitrogen), DDR1; assay type: biochemical; settings: for IC50: LanthaScreen kinase activity assay, read-out: Enzymatic IC50 values DDR1; for activity of analogs against DDR1 kinase activity (in words): removal of the trifluoromethyl group
T1 construct: purchased Invitrogen
Description: (§1) IC50 values were determined by Invitrogen using a LanthaScreen kinase activity assay.
(§2) Figure S2. Inhibition of DDR1 and DDR2. (a) IC50 values for DDR1 inhibition determined by using a LanthaScreen kinase activity assay (Invitrogen). (b) IC50 values for DDR2 inhibition determined similarly.

[2] = biological target: T2, DDR2 (Homo sapiens, UniProt Q16832); test: LanthaScreen kinase activity assay (Invitrogen), DDR2; assay type: biochemical; settings: read-out: Enzymatic IC50 values DDR2
T2 construct: purchased Invitrogen
T2 sequence (Q16832 22-855): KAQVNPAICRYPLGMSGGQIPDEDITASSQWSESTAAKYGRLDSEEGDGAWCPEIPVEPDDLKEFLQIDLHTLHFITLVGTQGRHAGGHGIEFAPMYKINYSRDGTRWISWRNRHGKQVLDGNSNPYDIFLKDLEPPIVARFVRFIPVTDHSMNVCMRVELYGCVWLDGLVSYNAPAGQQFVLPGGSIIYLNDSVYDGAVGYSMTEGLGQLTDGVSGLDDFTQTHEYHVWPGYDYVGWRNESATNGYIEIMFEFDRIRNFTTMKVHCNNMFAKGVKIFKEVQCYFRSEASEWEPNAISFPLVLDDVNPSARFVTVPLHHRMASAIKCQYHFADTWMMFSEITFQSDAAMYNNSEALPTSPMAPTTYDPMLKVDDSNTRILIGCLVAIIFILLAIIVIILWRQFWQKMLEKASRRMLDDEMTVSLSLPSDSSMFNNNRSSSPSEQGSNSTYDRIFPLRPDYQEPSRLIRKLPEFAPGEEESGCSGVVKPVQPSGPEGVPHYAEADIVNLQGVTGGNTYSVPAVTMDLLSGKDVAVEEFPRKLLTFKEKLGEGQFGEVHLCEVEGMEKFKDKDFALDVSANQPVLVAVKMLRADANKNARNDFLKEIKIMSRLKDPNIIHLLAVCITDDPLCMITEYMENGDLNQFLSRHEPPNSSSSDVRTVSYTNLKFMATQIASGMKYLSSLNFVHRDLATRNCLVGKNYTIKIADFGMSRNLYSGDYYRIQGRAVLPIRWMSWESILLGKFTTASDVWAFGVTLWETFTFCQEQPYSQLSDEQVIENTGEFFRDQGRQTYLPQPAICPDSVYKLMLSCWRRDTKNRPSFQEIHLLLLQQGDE
Description: as §1, §2

[3] = tested on: ABL; set-up: method as in PMID 23899692; settings: quoted for selectivity relative to DDR1; cited from earlier work
[4] = biological target: T1, DDR1; set-up: method as in PMID 23275061; settings: cited from earlier work
[5] = biological target: T1, DDR1; set-up: method as in PMID 23275061; settings: cited from earlier work; remark: listed apart in the source

T1 sequence (Q08345 19-913): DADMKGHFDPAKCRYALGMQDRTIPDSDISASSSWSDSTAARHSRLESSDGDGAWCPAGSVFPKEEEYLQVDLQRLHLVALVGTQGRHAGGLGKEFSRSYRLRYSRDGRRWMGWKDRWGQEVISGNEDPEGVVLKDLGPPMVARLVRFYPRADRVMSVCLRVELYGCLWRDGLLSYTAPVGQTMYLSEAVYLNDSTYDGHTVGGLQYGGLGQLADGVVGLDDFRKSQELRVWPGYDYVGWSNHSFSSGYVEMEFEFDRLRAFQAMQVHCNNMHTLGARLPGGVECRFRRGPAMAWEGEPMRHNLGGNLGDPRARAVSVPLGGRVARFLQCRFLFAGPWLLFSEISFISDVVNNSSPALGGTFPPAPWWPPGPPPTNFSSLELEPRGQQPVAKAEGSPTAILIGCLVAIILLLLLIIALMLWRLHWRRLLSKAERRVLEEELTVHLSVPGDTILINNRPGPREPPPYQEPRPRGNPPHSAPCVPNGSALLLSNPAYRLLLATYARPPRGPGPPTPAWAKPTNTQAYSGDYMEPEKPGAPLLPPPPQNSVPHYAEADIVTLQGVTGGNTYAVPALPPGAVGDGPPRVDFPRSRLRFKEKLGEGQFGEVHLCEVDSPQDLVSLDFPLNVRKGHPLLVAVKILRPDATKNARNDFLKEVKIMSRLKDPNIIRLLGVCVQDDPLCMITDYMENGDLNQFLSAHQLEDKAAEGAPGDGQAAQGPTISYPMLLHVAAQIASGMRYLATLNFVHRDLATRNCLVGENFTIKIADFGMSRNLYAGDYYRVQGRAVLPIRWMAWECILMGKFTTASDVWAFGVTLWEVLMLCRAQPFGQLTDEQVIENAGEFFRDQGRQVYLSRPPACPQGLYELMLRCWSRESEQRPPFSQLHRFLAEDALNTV

IC50 [1] | IC50 [2] | activity of analogs against DDR1 kinase activity (in words) [1] | SMILES | IC50 [3] | IC50 [4] | EC50 [5]
262 nM | 785 nM | – | CCN1CCN(Cc2ccc(NC(=O)Nc3ccc(C)c(Oc4ccc5c(c4)CC(=O)N5)c3)cc2C(F)(F)F)CC1 [Compound 1] | – | – | –
115 nM | 338 nM | – | Cc1ccc(NC(=O)c2ccc(OC3CCN(C)CC3)c(C(F)(F)F)c2)cc1Oc1ccc2c(c1)CC(=O)N2 [Compound 2] | – | – | –
182 nM | 546 nM | – | Cc1ccc(NC(=O)c2cc(N3CCN(CCO)CC3)cc(C(F)(F)F)c2)cc1Oc1ccc2c(c1)CC(=O)N2 [Compound 3] | – | – | –
150 nM | 385 nM | – | CCN1CCN(c2cc(C(=O)Nc3ccc(C)c(Oc4ccc5c(c4)CC(=O)N5)c3)cc(C(F)(F)F)c2)CC1 [Compound 4] | – | – | –
174 nM | 1020 nM | – | Cc1ccc(NC(=O)c2cccc(C(C)(C)C#N)c2)cc1Oc1ccc2c(c1)CC(=O)N2 [Compound 5] | – | – | –
> 10000 nM | > 10000 nM | inactive | CCN1CCN(Cc2ccc(C(=O)Nc3ccc(C)c(Oc4ccc5c(c4)CC(=O)N5)c3)c(F)c2)CC1 [Compound 6] | – | – | –
8940 nM | > 10000 nM | inactive | CCN1CCN(Cc2ccc(F)c(C(=O)Nc3ccc(C)c(Oc4ccc5c(c4)CC(=O)N5)c3)c2)CC1 [Compound 7] | – | – | –
– | 413 nM | – | CCN1CCN(Cc2ccc(C(=O)Nc3ccc(C)c(Oc4ccc5c(c4)CC(=O)N5)c3)cc2C(F)(F)F)CC1 [DDR1-IN-1] | 1800 nM | – | –
– | – | – | Cc1ccc(C(=O)Nc2ccc(Oc3cc4cnn(C)c4cc3-c3cn[nH]c3)c(F)c2)c(=O)n1-c1ccc(F)cc1 [LY2801653] | – | < 1 nM | < 1 nM
